Calls of active or inactive are those of the source. No cut-off for these calls is given here.
Legend:
EAT = assay: Cytotoxicity against mouse EAT cells assessed as decrease in cell viability at 50 uM by trypan blue dye exclusion assay; assay type: functional, cell-based; details: TDE = time-dependent effect
MDA-MB-231 [1] = assay: Cytotoxicity against human MDA-MB-231 cells assessed as decrease in cell viability at 2 to 200 uM after 16 hrs by MTT assay; assay type: functional, cell-based
[2] = Cytotoxicity against mouse EAT cells assessed as cell death at 50 uM after 16 hrs by trypan blue dye exclusion assay relative to control; assay type: functional
MDA-MB-231 [3] = assay: Cytotoxicity against human MDA-MB-231 cells assessed as decrease in cell viability after 16 hrs by MTT assay; assay type: functional, cell-based; details: MDA-MB-231, 16 h
[4] = Induction of apoptosis in mouse EAT cells assessed as early apoptotic cells with membrane blebbing and condensed nuclei at 50 uM after 16 hrs by acridine orange/ethidium bromide staining-based fluorescence microscopic method relative to control; assay type: functional

SMILES	Activity (EAT)	Activity (MDA-MB-231 [1])	Activity [2]	IC50 (MDA-MB-231 [3])	Activity [4]
COc1ccc(C2=NOC(CN3CCN(c4nsc5ccccc45)CC3)C2)cc1OC (stereo unspecified)	Tde	Active	–	–	–
COc1cc(C2=NOC(CN3CCN(c4nsc5ccccc45)CC3)C2)cc(OC)c1OC (stereo unspecified)	Tde	inactive	–	–	–
c1ccc(C2=NOC(CN3CCN(c4nsc5ccccc45)CC3)C2)cc1 (stereo unspecified)	Tde	inactive	50%	–	–
Fc1ccc(C2=NOC(CN3CCN(c4nsc5ccccc45)CC3)C2)cc1 (stereo unspecified)	Tde	inactive	–	–	–
COc1cc(C2=NOC(CN3CCN(c4nsc5ccccc45)CC3)C2)ccc1OCc1ccccc1 (stereo unspecified)	Tde	–	53%	30 µM	67.3%
c1ccc(COc2ccc(C3=NOC(CN4CCN(c5nsc6ccccc56)CC4)C3)cc2)cc1 (stereo unspecified)	Tde	Active	45.6%	–	59%
COc1ccc(C2=NOC(CN3CCN(c4nsc5ccccc45)CC3)C2)cc1OCc1ccccc1 (stereo unspecified)	Tde	–	44.6%	95 µM	50%
COc1ccc(C2=NOC(CN3CCN(c4nsc5ccccc45)CC3)C2)cc1 (stereo unspecified)	Tde	Active	–	–	–
Clc1ccc(C2=NOC(CN3CCN(c4nsc5ccccc45)CC3)C2)cc1 (stereo unspecified)	Tde	–	–	75 µM	61.3%
